One test concerns the target T1, HA-OGR1 (GPR68) (Homo sapiens, UniProt Q15743).
T1 construct: HA; expressed in transfected cells
The test can be described thus: Ca2+ mobilization assay (Fluo-4). The class given is cell-based. The note with it: mean. As for the experimental part: Peptide-dependent Ca^2+ mobilization responses were measured in HEK293 stable cell lines (HA-OGR1 (GPR68) and vector pcDNA) ([Saxena et al., 2012]) that were seeded in 96-well plates (1 × 10^5 cells/well) and cultured at 37°C with 5% CO2 to near confluence in DMEM with 10% FBS (Corning). Six hours prior to assay, medium was changed to pH 8.0 or pH 7.4 HAM’s F12 Nutrient Mixture (GIBCO) without FBS and transferred to a 37°C incubator without CO2. One hour prior to stimulation, cells were incubated in pH 8.0 or pH 7.4 HBSS with Ca^2+ and Mg^2+ (GIBCO), supplemented with 15 mM HEPES, 2 μM Fluo-4 AM (Invitrogen) and 1.5 mM probenecid ([…] to prevent Fluo-4 efflux) as described previously ([Pera et al., 2018]). Indicated peptides were pipetted using an automated system and emission signal was recorded at 525 nm after excitation at 485 nm using Flex Station III (Molecular Devices). Ca^2+ mobilization responses were determined by subtracting basal fluorescence from the net peak of agonist-induced fluorescence. Ionomycin (1 μM) was used to calculate the maximum Ca^2+ signal to normalize peptide-mediated responses.
Background: Calcium flux is commonly read through the fluorescence of an indicator in the cells.

The next test concerns the target GPR68 (Homo sapiens, UniProt Q15743). The experiment in a line: Real-time receptor internalization (TR-FRET), concentration-response. In kind it is cell-based. Also on record: hIL-2Ra signal peptide (N); expressed in transfected cells. The note with it: GPR68, mean. As for the experimental part: 48 hr prior to parallel assaying, SNAP-tagged oGPCR cells were plated (10,000 cells/well) in fibronectin-coated 384-well Epic biosensor microplates (Corning) and poly-D-lysine coated white 384-well plates (for internalization assays). SNAP- GLP-1 receptor was plated alongside orphan receptor cells as an internal assay control for internalization assays. Receptor-expression was induced with 0.1 μg/ml doxycycline.
A TR-FRET real-time internalization assay was used to examine peptide-dependent changes in orphan receptor localization as described previously ([Foster and Bräuner-Osborne, 2018]). Surface-expressed SNAP-tagged receptors were labeled with a cell-impermeable luminescent terbium cryptate (100 nM SNAP Lumi4-Tb; Cisbio, France) for 1 hr at 37°C. Cells were washed to remove excess terbium and incubated with fluorescein-O-acetic acid (100 μM; Sigma Aldrich) for 5 min at 37°C. Peptides were added as for DMR assays, and internalization responses were recorded for 60 min at 37°C using an EnVision 2104 Multimode plate reader (PerkinElmer). 100 nM GLP-1 was used as a positive control for SNAP-GLP1R internalization. Real-time internalization responses were calculated based on TR-FRET (excitation 340 nm; emission 520 nm and 615 nm), and were expressed as the ratio between donor (terbium) and acceptor (fluorescein) emission. For peptide screening analysis (both DMR and internalization assays), we calculated the area under the curve from the real-time traces. As the magnitude of the responses was variable between orphan receptor targets, particularly for the SNAP-tag based internalization assay where the signal is dependent on receptor surface expression, the AUC values were normalized to their respective plate averages and expressed as fold change. Validation experiments for receptor internalization were performed as above. Internalization data was processed in MS-Excel and area under the curve was used to generate concentration-response curves using GraphPad Prism 7.0. Data represent mean ± standard error of the mean (SEM) from at least 3 biologically independent experiments.
On the technique in general: TR-FRET usually uses a lanthanide donor and a delayed reading to cut background.

For a further test, the target named is T2, NPY5 (Homo sapiens, UniProt Q15761).
T2 construct: host or cells: HTLA cells (HEK293-derived)
T2 sequence (Q15761 1-445): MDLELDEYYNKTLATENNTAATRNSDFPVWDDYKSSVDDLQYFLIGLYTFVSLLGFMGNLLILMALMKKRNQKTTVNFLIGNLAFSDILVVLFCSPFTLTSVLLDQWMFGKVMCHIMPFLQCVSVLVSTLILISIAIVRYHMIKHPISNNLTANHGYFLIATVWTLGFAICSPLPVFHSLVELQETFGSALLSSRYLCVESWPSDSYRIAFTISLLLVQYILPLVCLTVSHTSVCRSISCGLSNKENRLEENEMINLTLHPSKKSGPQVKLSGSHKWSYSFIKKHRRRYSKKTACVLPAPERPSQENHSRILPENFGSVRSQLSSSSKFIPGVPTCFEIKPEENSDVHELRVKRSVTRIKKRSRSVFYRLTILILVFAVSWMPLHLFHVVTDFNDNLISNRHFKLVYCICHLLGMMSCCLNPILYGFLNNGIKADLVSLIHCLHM
The experiment in a line: β-arrestin recruitment (Tango), known peptide receptors. In kind it is cell-based. As to conditions: NPY5R, n = 3; for Comment, Tango (fold over basal): Emax and pEC50 n.d.; for Emax, Tango (fold over basal) / pEC50, Tango (fold over basal): mean. As for the experimental part: (§1) The peptide library was additionally screened against 120 GPCR targets in parallel, including all available orphan receptors and 27 known class A peptide receptors using the Tango assay platform ([Kroeze et al., 2015]). Briefly, HTLA cells (a HEK293 cell line stably expressing a tTA-dependent luciferase reporter and a β-arrestin2-TEV fusion gene) were plated 10,000 cells/well in poly-L-lysine–coated clear-bottom white 384-well plates in DMEM supplemented with 10% FBS, 100 U/ml penicillin and 100 μg/ml streptomycin, 2 μg/ml puromycin and 100 μg/ml hygromycin B. 24 hr later, cells were transfected with Tango GPCR constructs using the calcium phosphate method ([Jordan et al., 1996]). The next day, culture medium was changed to DMEM + 1% dFBS and 10 μM peptides were added for overnight stimulation. Bright-Glo solution (Promega) was incubated for 15–20 min at room temperature, and luminescence was counted using a Trilux luminescence counter (Wallac).
For subsequent peptide validation experiments using Tango assays, HTLA cells were transiently transfected in 10 cm dishes with the receptor of interest using polyethylenimine (PEI) ([Longo et al., 2013]). After 24 hr, 25,000 cells/well were plated in clear bottom, white-walled 384-well plates. Assays were performed as described above, with luminescence measured using an EnSpire 2300 Multimode plate reader (PerkinElmer). Luminescence counts were exported into Excel and were analyzed using GraphPad Prism 7.
A general note: Activated receptors often draw arrestin, which recruitment assays turn into a signal.

Test [1] relates to 120 GPCR targets, including all available orphan receptors and 27 known class A peptide receptors. The test can be described thus: Peptide library screen, β-arrestin recruitment (Tango, fold change, 10 μM). In kind it is cell-based, human. The note with it: for Active at: (activity in b-arrestin recruitment assays): Tango, receptor(s) at which the known library peptide was active, among its known GPCR target(s), validated pairings. As for the experimental part: as §1

The next test addresses T3, MRGPRX2 (Homo sapiens, UniProt Q96LB1).
T3 construct: host or cells: HTLA cells (HEK293-derived)
T3 sequence (Q96LB1 1-330): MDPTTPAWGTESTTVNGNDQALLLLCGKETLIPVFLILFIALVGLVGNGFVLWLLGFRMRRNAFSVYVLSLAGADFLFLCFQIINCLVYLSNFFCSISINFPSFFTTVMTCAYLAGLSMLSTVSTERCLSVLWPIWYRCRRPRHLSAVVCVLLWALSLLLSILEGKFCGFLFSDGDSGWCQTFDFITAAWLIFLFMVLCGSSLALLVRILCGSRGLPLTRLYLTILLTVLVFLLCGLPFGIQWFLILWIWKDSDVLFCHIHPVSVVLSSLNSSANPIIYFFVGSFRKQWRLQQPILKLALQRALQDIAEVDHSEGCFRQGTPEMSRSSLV
The test can be described thus: β-arrestin recruitment (Tango), known peptide receptors. The class given is cell-based. The note with it: mean, n = 3.

Like-named read-outs stand apart in the source and are kept apart here. Residues, ends and D or L forms follow the SMILES beside them.

What is called Emax is the greatest response seen or fitted, relative to the assay's reference.

T1 sequence (Q15743 whole entry): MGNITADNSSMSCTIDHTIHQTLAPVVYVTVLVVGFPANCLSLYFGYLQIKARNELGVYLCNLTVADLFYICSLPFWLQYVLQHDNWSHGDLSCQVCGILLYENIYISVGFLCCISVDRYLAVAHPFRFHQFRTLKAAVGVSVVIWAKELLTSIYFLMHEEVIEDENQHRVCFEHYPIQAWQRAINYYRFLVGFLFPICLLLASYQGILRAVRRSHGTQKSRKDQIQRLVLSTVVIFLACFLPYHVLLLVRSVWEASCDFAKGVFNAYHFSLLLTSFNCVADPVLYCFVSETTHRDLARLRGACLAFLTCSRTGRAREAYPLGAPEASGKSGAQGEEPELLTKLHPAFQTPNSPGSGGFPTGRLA
Chain of GPR68 (Q15743 2-365 limits assumed): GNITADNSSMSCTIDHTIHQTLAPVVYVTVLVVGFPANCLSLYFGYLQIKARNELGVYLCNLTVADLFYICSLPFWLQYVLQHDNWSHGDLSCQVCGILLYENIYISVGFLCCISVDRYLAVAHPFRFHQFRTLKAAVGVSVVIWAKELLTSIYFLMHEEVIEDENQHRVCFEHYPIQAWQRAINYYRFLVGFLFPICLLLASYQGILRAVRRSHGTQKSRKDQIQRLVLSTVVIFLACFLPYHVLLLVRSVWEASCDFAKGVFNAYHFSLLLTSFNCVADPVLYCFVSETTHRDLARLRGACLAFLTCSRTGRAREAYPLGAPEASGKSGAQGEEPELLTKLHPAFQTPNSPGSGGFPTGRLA

In the case of `CC[C@H](C)[C@H](NC(=O)[C@H](CCCNC(=N)N)NC(=O)[C@H](CC(=O)O)NC(=O)[C@H](CCSC)NC(=O)[C@@H]1CCCN1C(=O)[C@@H](NC(=O)CNC(=O)[C@H](Cc1ccccc1)NC(=O)[C@@H](N)CCCNC(=N)N)[C@@H](C)CC)C(=O)NCC(=O)N[C@@H](CCCNC(=N)N)C(=O)N[C@@H](CC(N)=O)C(=O)N[C@@H](CCCNC(=N)N)C(=O)N[C@@H](CC(C)C)C(=O)N[C@@H](CO)C(=O)N[C@@H](CC(N)=O)C(=O)N[C@@H](CO)C(=O)N[C@@H](CCCNC(=N)N)C(=O)NCC(=O)O` [128 resynthesized] (H-RFGIPMDRIGRNRLSNSRG-OH), the maximum response (Emax) on HA-OGR1 (GPR68) (receptor GPR68, SEM and n (3), read-out: Calcium mobilization assays Emax (% ionomycin)) is 34.5%.

In the case of `CC[C@H](C)[C@H](NC(=O)[C@H](CCCNC(=N)N)NC(=O)[C@H](CC(=O)O)NC(=O)[C@H](CCSC)NC(=O)[C@@H]1CCCN1C(=O)[C@@H](NC(=O)CNC(=O)[C@H](Cc1ccccc1)NC(=O)[C@@H](N)CCCNC(=N)N)[C@@H](C)CC)C(=O)NCC(=O)N[C@@H](CCCNC(=N)N)C(=O)N[C@@H](CC(N)=O)C(=O)N[C@@H](CCCNC(=N)N)C(=O)N[C@@H](CC(C)C)C(=O)N[C@@H](CO)C(=O)N[C@@H](CC(N)=O)C(=O)N[C@@H](CO)C(=O)N[C@@H](CCCNC(=N)N)C(=O)NCC(=O)O` [Osteocrin_(33-50)] (H-RFGIPMDRIGRNRLSNSRG-OH), at HA-OGR1 (GPR68) (GPR68, data from resynthesized peptide, SEM and n, read-out: Emax, Ca2+ mobilization (% iono)), the maximum response (Emax) is 34.5%. Further, the “pEC50, Internalization (AUC)” value at GPR68 (SEM and n) is “Response >1uM”.

Turning to IQAQLKELRY [Peptide 49], the “Comment, Tango (fold over basal)” value on NPY5 was “Response >1uM”.

In the case of MPHSFANLPLRF [Peptide 86], at NPY5, the “Emax, Tango (fold over basal)” value is recorded as 10.4 fold over basal and the “pEC50, Tango (fold over basal)” value is listed as 5.44. The “Active at: (activity in b-arrestin recruitment assays)” value in test [1] is listed as “NPFF1”.

Take RFGIPMDRIGRNRLSNSR [Peptide 128.1]: the “Internalization assays Emax (AUC)” value at GPR68 (real-time internalization, SEM and n (3)) is 2.0.

In the case of SQAFLFQPQRF [Peptide 75], the “Comment, Tango (fold over basal)” value at NPY5 is on record as “Response >1uM”. Also, the “Active at: (activity in b-arrestin recruitment assays)” value in test [1] is “NPFF1”.

As to “SRTHRHSMEIRTPDINPAWYASRGIRPVGRF [Peptide 183]”, on NPY5, the “Emax, Tango (fold over basal)” value worked out at 6.6 fold over basal and the “pEC50, Tango (fold over basal)” value stood at 5.60. Besides, the “Active at: (activity in b-arrestin recruitment assays)” value in test [1] is reported as “PrRP”. In addition, in test [1] (repeat hitters of the peptide library screen, the value names the known receptor(s) confirmed in the β-arrestin recruitment (Tango) screen), the “Confirmation of known target in Tango” value is “PrRP”.

Take VPNLPGRF [Peptide 36]: the “Comment, Tango (fold over basal)” value at NPY5 was “Response >1uM”.

Turning to WYKHVASPRYHTVGRAAGLLMGL [Peptide 151], the “Active at: (activity in b-arrestin recruitment assays)” value in test [1] is given as “NPBW1, NPBW2”. Also, at MRGPRX2, the “Emax, Tango (fold over basal)” value came out at 3.4 fold over basal and the “pEC50, Tango (fold over basal)” value was found to be 4.73.

The record behind these values is article PMC6838683, “Discovery of Human Signaling Systems: Pairing Peptides to G Protein-Coupled Receptors” (Cell, 2019).
